The values that follow are results of earlier work, collected in patent US12486292B2, “Prodrug platform useful to deliver amines, amides and phenols” (Changchun Changcheng Pharmaceutical Technology Co., LTD, priority 2019, dated 2025).

The conditions of the data set: phase I human clinical trials, oral dosing.

For `CCCC(CCC)C(=O)Nc1ccn([C@@H]2O[C@H](CO)[C@@H](O)C2(F)F)c(=O)n1` [LY2334737], the Hepatotoxicity entry is given as “observed in some patients”.
